Laboratory results as given in US6653442B1, “Protegrins” (priority 1993, dated 2003).
Bridge positions count the residues as written; N and C are the ends. Square brackets hold non-standard residues; d marks the D form. Ends that are not written are not given here. Peptide text beside a SMILES is read from it.

Experiments:
E. coli ML-35P = assay: Radial diffusion assay in agarose gels, E. coli; format: cell-based
[1] = tested on: Listeria monocytogenes, strain EGD; assay: Radial diffusion assay in agarose gels, L. monocytogenes; format: cell-based
Protocol: Aliquots (66 μl) of each fraction were dried by vacuum centrifugation and resuspended in 6.6 μl of 0.01% acetic acid. Five μl samples of this concentrate were tested for antimicrobial activity against E. coliML-3, L. monocytogenes, strain EGD and C. albicans, strain 820, using radiodiffusion and gel overlay techniques as described by Lehrer, R. I. et al. J Immunol Meth (1991) 137:167-173. […] The units of activity in the radial diffusion assay were measured as described; 10 units correspond to a 1 mm diameter clear zone around the sample well. Activity was found in a large number of fractions.
The radial diffusion assay in agarose gels described in Example 1 was also used to test the activity of the purified protegrins. FIGS. 4a, 4b and 4c show the results against three test organisms in units described as above.
The antimicrobial activity of the linearalized forms was also compared with that of the native protegrins. Both linearalized and cyclic forms of the protegrins tested continue to show antimicrobial activity, although the effectiveness of these peptides as antimicrobials depends on the nature of the target organism and on the test conditions. The antimicrobial activity of native PG-1 and its linearalized form (cam-PG-1) and PG-3 and its linearalized form (cam-PG-3) were tested according to the procedure set forth in Example 1 as described by Lehrer, R. I. et al. J Immunol Meth (1991) 137:167-173.
Using standard solid phase techniques, a protegrin having the amino acid sequence of PG-1, but wherein every amino acid is in the D form was prepared. This form of protegrin was tested against E. coli, L. monocytogenes, C. albicans and other microbes in the absence and presence of protease and otherwise as described for the radiodiffusion assay in agarose gels set forth in Example 1.
The kite and bullet PG-1 compounds prepared in Example 12 were tested for antimicrobial activity using the radial diffusion assay described in Example 1 as published by Lehrer, R. I. et al., J Immunol Meth (1991) 137:167-173, except that the underlay agars contained […] sodium phosphate buffer with a final pH of 7.4. As described in Example 1, 0.3 mg/ml tripticase soy broth powder and 1% agarose were used as well in the underlay agar. In some cases 100 mM NaCl or RPMI plus 2.5% normal human serum (NHS) was added to the agar.

C. albicans, strain 820 = format: cell-based, Candida albicans
Protocol: Similarly, using C. albicans as a target organism, underlayers were prepared with 10 mM sodium phosphate with and without 10% normal human serum.

[2] = tested on: lipid polysaccharide (LPS) of E. coli strain 0.55B5; assay: Limulus amebocyte lysate (LAL) test for endotoxin binding; format: biochemical; details: LPS 0.05 endotoxin unit/ml
[3] = tested on: N. gonorrhoeae strains FA 19 and F 62; details: 45 minutes at 37° C.
Protocol: Nonpiliated transparent variants of strains FA 19 and F 62 were propagated on GCB agar plates containing glucose and iron supplements overnight at 37° C. under 3.8% V/V CO2. These strains were chosen for their adaptability to the assay.
The overnight growth is removed from the agar plate and suspended in GCB broth containing supplements and sodium bicarbonate and grown with shaking at 37° C. to mid log phase. The culture is diluted 1:100 in GCB broth to give about 10^6 CFU/ml and serial dilutions were plated onto GCB agar.
Ten μl of each dilution is added to a sterile polystyrene tube containing 90 μl of diluted bacteria and the tubes are shaken at 37° C. for 45 minutes. The contents are serially diluted 1:10 and plated on to GCB agar plates which are incubated in a CO2 incubator. CFU are counted after 24 hours and the log bactericidal activity calculated.

HIVJR-CSF and HIVJR-FL = assay: HIV infection of human peripheral blood mononuclear cells, p24 antigen
Protocol: Briefly, the mononuclear cell fraction is recovered from normal donor leukopacs from the American Red Cross using a Ficoll-hypaque density gradient. The mononuclear cells are resuspended at 1×10^6 cells per ml in RPMI 1640 medium with 20% fetal bovine serum, 1% penn/strep with fungizone and 0.5% PHA and incubated 24 hours at 37° C. in 5% CO2. The cells are centrifuged, washed and then expanded for 24 hours in growth medium.
Non-laboratory adapted, cloned HIVJR-CSF and HIVJR-FL were electroporated into the human peripheral blood mononuclear cells prepared as described above. Titers were determined and in general, multiplicities of infection (MOI) of about 4,000 infectious units per cell are used (which corresponds to 25-40 picograms per ml HIV p24 antigen in the supernatant).
In the assay, the HIV stocks prepared as above were diluted to the correct MOI and the PBM are added to 24 well plates at a concentration of 2×10^6 per ml. One μl total volume is added to each well. The peptide to be tested is added in growth medium to achieve the final desired concentration. Then the appropriate number of MOI are added. To assay viral growth, 200 μl of supernatant is removed on days 3 and 7 and the concentration of p24 antigen is determined using a commercial assay (Coulter Immunology, Hialeah, Fla.). Controls include duplicate wells containing cells alone, cells plus peptide at 5 μg/ml cells with virus but not peptide and cells with virus in the presence of AZT at 10^−5 M-10^−8 M.

[4] = Radial diffusion assay in 25 mM borate buffer (Table 4); format: cell-based; details: buffer (25 mM borate buffer, pH 7.4)
Protocol: Contact lens solutions are typically formulated with borate buffered physiological saline and may or may not contain EDTA in addition. Protegrins in the form of the synthetic PG-3 amide and synthetic PG acid were tested generally in the assay described in Example 1 wherein all underlay gels contain 25 mM borate buffer, pH […] tryptocase soy broth ([…] TSB powder) and […]. Additions included either 100 mM NaCl, 1 mM EDTA or a combination thereof. Other test compounds used as controls were the defensin NP-1 and lysozyme. Dose response curves were determined.

Candida albicans = assay: Radial diffusion assay in 25 mM borate buffer, Candida albicans; format: cell-based
L. monocytogenes = assay: Radial diffusion assay in 25 mM borate buffer, L. monocytogenes; format: cell-based
[5] = tested on: methicillin resistant Staphylococcus aureus (MRSA); assay: Minimal inhibitory concentration, MRSA; format: cell-based
Protocol: (§1) The minimal inhibitory concentrations (MICs) of a variety of protegrins were determined against the following organisms: methicillin resistant Staphylococcus aureus (MRSA), Pseudomonas aeruginosa (Psa), vancomycin resistant Enterococcus fecium (VREF), Candida albicans (Candid) and Escherichia coli (E. Co), and are shown in Table 9.

[6] = tested on: Pseudomonas aeruginosa (Psa); assay: Minimal inhibitory concentration, Psa; format: cell-based
Protocol: as §1

[7] = tested on: Candida albicans (Candid); assay: Minimal inhibitory concentration, Candida; format: cell-based
Protocol: as §1

Escherichia coli (E. Co) = assay: Minimal inhibitory concentration, E. coli; format: cell-based
Protocol: as §1

[8] = tested on: E. coli ML-35 (serum sensitive); assay: Underlay gel assay with and without normal human serum, E. coli ML-35; format: cell-based; details: 10 mM sodium phosphate buffer, pH 7.4
[9] = tested on: Trichomonas vaginallis strain C1 (ATCC 30001); strains MR and TV; assay: Trichomonas vaginallis exposure assay; details: strains MR and TV; 100 and 50 μg/ml
[10] = radial diffusion, underlay agar pH 6.5

R-G-G-R-L-C-Y-C-R-R-R-F-C-I-C-V (RGGRLCYCRRRFCICV) [PG-2]
antibacterial activity against E. coli (FIG. 4a) (E. coli ML-35P; [10]): effective against the three organisms tested but was not as active as the other two peptides
antibacterial activity against Listeria monocytogenes (FIG. 4b) [1, 10]: effective against the three organisms tested but was not as active as the other two peptides
antifungal activity against Candida albicans (FIG. 4c) (C. albicans, strain 820; [10]): effective against the three organisms tested but was not as active as the other two peptides
gel formation in LAL test ([2]; 1.0 μg peptide in 0.2 ml): no gel
gel formation in LAL test ([2]; 2.5 μg peptide in 0.2 ml): no gel
gel formation in LAL test ([2]; 5 μg peptide in 0.2 ml): no gel
gel formation in LAL test ([2]; 10 μg peptide in 0.2 ml): no gel
reduction in CFU per ml [3]: 2.6 fold
anti-HIV activity level relative to PG-1 (HIVJR-CSF and HIVJR-FL): approximately 5 fold less

lysozyme [reference compound]
ESTIMATED MINIMAL FUNGICIDAL CONCENTRATIONS [4]: 75.0 µg/mL

CC[C@H](C)[C@@H]1NC(=O)[C@H](CCCNC(=N)N)NC(=O)[C@@H]2CSSC[C@@H]3NC(=O)[C@H](C)NC(=O)[C@@H](NC(=O)[C@@H](NC(=O)[C@@H](N)C(C)C)C(C)C)CSSC[C@@H](C(=O)N[C@@H](CCCNC(=N)N)C(=O)N[C@@H](CCCNC(=N)N)C(=O)O)NC(=O)[C@H](CSSC[C@H](NC(=O)[C@H](CC(C)C)NC(=O)[C@H](C)NC(=O)[C@H](CCCNC(=N)N)NC(=O)[C@H](CCCNC(=N)N)NC3=O)C(=O)N[C@@H](CC(C)C)C(=O)N3CCC[C@H]3C(=O)N[C@@H](CCCNC(=N)N)C(=O)N[C@@H](CCC(=O)O)C(=O)N[C@@H](CCCNC(=N)N)C(=O)N[C@@H](CCCNC(=N)N)C(=O)N[C@@H](C)C(=O)NCC(=O)N[C@@H](Cc3ccccc3)C(=O)N2)NC(=O)[C@H](CC(C)C)NC(=O)[C@@H]2CCCN2C(=O)[C@H](Cc2c[nH]cn2)NC(=O)[C@H]([C@@H](C)CC)NC(=O)[C@H](CCCNC(=N)N)NC(=O)CNC(=O)[C@H](CCCNC(=N)N)NC1=O [NP-1, reference compound] (H-VVCACRRALCLPRERRAGFCRIRGRIHPLCCRR-OH; disulfide 3-31, 5-20, 10-30; N-terminus and C-terminus assumed)
activity against E. coli in NaCl (FIG. 5b) (E. coli ML-35P; in the presence of 100 mM NaCl): Neither NP-1 nor HNP-1 have this property
activity against Candida albicans in fetal calf serum (FIG. 5c) (C. albicans, strain 820; 90% fetal calf serum): lose their ability to inactivate C. albicans
activity against C. albicans in NaCl (FIG. 5a) (C. albicans, strain 820; in the presence of 100 mM NaCl): Neither NP-1 nor HNP-1 have this property
ESTIMATED MINIMAL FUNGICIDAL CONCENTRATIONS [4]: 35.0 µg/mL
ESTIMATED MINIMAL FUNGICIDAL CONCENTRATIONS (Candida albicans; 25 mM borate buffer): 23.0 µg/mL
ESTIMATED MINIMAL FUNGICIDAL CONCENTRATIONS (Candida albicans; borate buffer + 120 mM NaCl): 60.0 µg/mL
ESTIMATED MINIMAL FUNGICIDAL CONCENTRATIONS (Candida albicans; borate buffer + EDTA & NaCl): 65.0 µg/mL
ESTIMATED MINIMAL BACTERICIDAL CONCENTRATIONS (L. monocytogenes; 25 mM borate buffer): 20.0 µg/mL
ESTIMATED MINIMAL BACTERICIDAL CONCENTRATIONS (L. monocytogenes; borate buffer + 120 mM NaCl): 11.0 µg/mL
ESTIMATED MINIMAL BACTERICIDAL CONCENTRATIONS (L. monocytogenes; borate buffer + EDTA & NaCl): 3.8 µg/mL

R-G-G-G-L-C-Y-A-R-G-F-I-A-V-C-F-G-R (RGGGLCYARGFIAVCFGR-NH2; not fully specified; printed as R-G-G-G-L-C-Y-A-R-G-F-I-A-V-C-F-G-R; cysteine pairing not given here) [IB-216]
minimal inhibitory concentration (MIC) MRSA [5]: 19
minimal inhibitory concentration (MIC) Psa [6]: 14
minimal inhibitory concentration (MIC) Candid [7]: 65.8
minimal inhibitory concentration (MIC) E. Co (Escherichia coli (E. Co)): 3.27

R-G-G-R-L-C-Y-C-R-R-R-F-C-V-C-V-G-R-OH (RGGRLCYCRRRFCVCVGR-OH; cysteine pairing not given here) [IB-247]
minimal inhibitory concentration (MIC) MRSA [5]: 1.5
minimal inhibitory concentration (MIC) Psa [6]: 0.11
minimal inhibitory concentration (MIC) Candid [7]: 1.2
minimal inhibitory concentration (MIC) E. Co (Escherichia coli (E. Co)): 0.6

CC(C)C[C@H](NC(=O)[C@H](CCCNC(=N)N)NC(=O)CNC(=O)CNC(=O)[C@@H](N)CCCNC(=N)N)C(=O)N[C@H]1CSSC[C@@H](C(=O)N[C@H](C(=O)NCC(=O)N[C@@H](CCCNC(=N)N)C(N)=O)C(C)C)NC(=O)[C@H](C(C)C)NC(=O)[C@@H]2CSSC[C@H](NC(=O)[C@H](Cc3ccc(O)cc3)NC1=O)C(=O)N[C@@H](CCCNC(=N)N)C(=O)N[C@@H](CCCNC(=N)N)C(=O)N[C@@H](CCCNC(=N)N)C(=O)N[C@@H](Cc1ccccc1)C(=O)N2 [synthetic PG-1]
minimal bacteriocidal concentration ([8]; absence of serum): approximately 1.0 μg/ml
minimal bacteriocidal concentration ([8]; presence of […] normal human serum): about 0.1 μg/ml

R-G-G-R-L-C-Y-C-R-R-R-F-C-V-C-V-G-R (all †) ([dR]GG[dR][dL][dC][dY][dC][dR][dR][dR][dF][dC][dV][dC][dV]G[dR]-NH2; cysteine pairing not given here) [enantioPG-1]
inhibition of growth of E. coli (FIG. 12a) (E. coli ML-35P; absence of protease): equally effective
antibacterial effect in presence of protease (FIG. 12b) (E. coli ML-35P; trypsin or chymotrypsin, organism of FIG. 12b not stated): neither trypsin nor chymotrypsin inhibits the antibacterial effect
susceptibility of metronidazole-resistant clinical isolates [9]: susceptible

R-G-G-G-L-C-Y-C-R-R-P-F-C-V-C-V-G-R (RGGGLCYCRRPFCVCVGR-NH2; cysteine pairing not given here) [IB-224]
minimal inhibitory concentration (MIC) MRSA [5]: 3.1
minimal inhibitory concentration (MIC) Psa [6]: 0.06
minimal inhibitory concentration (MIC) Candid [7]: 7.69
minimal inhibitory concentration (MIC) E. Co (Escherichia coli (E. Co)): 0.15

R-G-G-G-L-C-Y-A-R-G-W-I-A-F-C-V-G-R (RGGGLCYARGWIAFCVGR-NH2; cysteine pairing not given here) [IB-214]
minimal inhibitory concentration (MIC) MRSA [5]: 2.1
minimal inhibitory concentration (MIC) Psa [6]: 0.59
minimal inhibitory concentration (MIC) Candid [7]: 32.6
minimal inhibitory concentration (MIC) E. Co (Escherichia coli (E. Co)): 0.81

R-G-G-R-L-C-Y-C-R-P-R-F-C-V-C-V-G-R (RGGRLCYCRPRFCVCVGR-NH2; cysteine pairing not given here) [PG-5]
antimicrobial activity against E. coli compared to synthetic PG-1 (FIGS. 11a-11c) (E. coli ML-35P): comparable antimicrobial activity to PG-1
antimicrobial activity against L. monocytogenes compared to synthetic PG-1 (FIGS. 11a-11c) [1]: comparable antimicrobial activity to PG-1
antimicrobial activity against C. albicans compared to synthetic PG-1 (FIGS. 11a-11c) (C. albicans, strain 820): comparable antimicrobial activity to PG-1
